In PMC8021898 (Frontiers in Pharmacology, 2021):
≈ marks a conversion by molar mass, not a printed value. Where “and” joins values, the source holds several entries; their conditions need not be identical. Identical values can stand only once. Like-named read-outs stand apart in the source and are kept apart here.

Legend:
[1] = for Css Free drug Concentration (mass/volume) / Css Free drug Concentration (molarity): approximately 20% protein bound
[2] = test system: hospitalized COVID-19 patients; details: ref Cheung et al., 2020, Shoaibi et al., Yeramaneni et al.; cited from earlier work
[3] = test system: H2 in primary human neutrophils; details: ref Reher et al., 2012, cited from earlier work
[4] = molecular target: T1, histamine H2 receptor (Homo sapiens, UniProt P25021); details: partial agonist
[5] = test system: SARS-CoV-2; assay: microbe, parasite or virus in culture; type: cell-based; details: for IC50: read-out: Antiviral: IC50; for IC90: read-out: Antiviral: IC90; for inhibition of SARS-CoV-2 infection: Vero E6 cell-based assay
[6] = test system: human skin mast cells; details: 10 μM pre-incubation; ref Lippert et al., 2004; cited from earlier work
[7] = molecular target: T2, H2 (Homo sapiens, UniProt P25021); assay: biochemical; details: affinity (Ki) for histamine H2 receptor
Protocol: Radioligand binding assays with human histamine receptors. Radioligand binding assays with human H1, H2, H3, and H4 receptors were conducted according to the NIMH PDSP assay protocol (https://pdsp.unc.edu/pdspweb/?site=assays) and published procedures ([Besnard et al., 2012]).

[8] = molecular target: human sigma-2 (TMEM97) (Homo sapiens, UniProt Q5BJF2); details: concentrations up to 10 μM
Protocol: Sigma-2 competition curves were performed in a similar manner, using Expi293 cells overexpressing the human sigma-2 (TMEM97) and using [^3H] DTG as the radioactive probe.

[9] = molecular target: human sigma-1 receptor (Homo sapiens, UniProt Q99720); details: concentrations up to 10 μM
Protocol: All reactions were performed in triplicate using a 96-well block. […] Data were analyzed using GraphPad Prism software.

[10] = molecular target: T2, H2; assay: cell-based
Protocol: cAMP production was determined in transiently transfected HEK293T cells ([Stauch et al., 2019]) with minor modifications. In brief, HEK293 T cells were co-transfected with H2 and GloSensor cAMP reporter DNA (Promega) overnight and plated in poly-l-lysine coated clear bottom 384-well white plate at a density of 15,000 cells/well in 40 ul of DMEM supplemented with 1% dialyzed FBS for 6 h. Medium was removed and cells were loaded with 3 mM luciferin in drug buffer (20 ul/well, 1x HBSS, 20 mM HEPES, pH 7.40) for 30 min. Test compounds were prepared in the same drug buffer supplemented with 1 mg/ml BSA and added (20 ul/well at 2x) to cells. Luminescence was counted after 20 min and results were analyzed in Prism 8.4.

[11] = test system: 318 known human GPCRs; details: 10 microM final; threshold >3x basal; follow up studies
Protocol: (§1) Human G-coupled Protein Receptor genome (GPCRome) screening was carried out according to published procedure ([Kroeze et al., 2015]) with minor modifications. In brief, HTLA cells were subcultured into poly-L-lysine coated clear bottom 384-well white plates at a density of 6,000 cells/well in 40 ul of DMEM supplemented with 1% dialyzed FBS for overnight, transfected with 20 ng/well Tango constructs for 24 h, received drug stimulation (10 uM final) for another 24 h. Medium and drug solutions were removed and Bright-Glo Reagents (Promega) were added for luminescence counting. For concentration response assays, HTLA cells were transfected with Tango constructs for 24 h, plated in poly-L-Lysine coated clear bottom 384-well white plates at a density of 10,000 cells/well in 40 ul of DMEM supplemented with 1% dialyzed FBS for 6 h before receiving drugs for overnight stimulation. Plates were then counted as above.

[12] = molecular target: bradykinin receptor B1 (Homo sapiens, UniProt P46663); details: quadruplicate replicate
Protocol: as §1

[13] = molecular target: bradykinin receptor B2 (Homo sapiens, UniProt P30411); details: quadruplicate replicate
Protocol: as §1

[14] = in vitro; details: African green monkey
[15] = molecular target: T1, histamine H2 receptor; assay: cell-based
[16] = test system: H2 in primary human eosinophils; details: ref Reher et al., 2012, cited from earlier work
[17] = test system: H2 in primary human neutrophils; details: ref Reher et al., 2012, cited from earlier work; remark: listed apart in the source
[18] = test system: COVID-19 patient; details: one patient, 60 mg p.o. t.i.d. for 30 days, started day 8 of symptoms; anecdotal
[19] = molecular target: histamine H2 receptor; details: cited from earlier work
[20] = MTT cytotoxicity assay in uninfected Vero E6 cells; details: African green monkey, uninfected Vero E6 cells
[21] = test system: Vero E6 cells; assay: MTT cytotoxicity assay in uninfected Vero E6 cells; details: uninfected Vero E6, MTT
[22] = 40 mg tablet p.o. t.i.d., pK data reported by Lin et al. (1987)
[23] = 40 mg tablet p.o. t.i.d., pK data reported by Yeh et al. (1987)
[24] = Severe acute respiratory syndrome coronavirus 2, Vero C1008, Vero E6, 48 h, MOI 0.025
[25] = Severe acute respiratory syndrome coronavirus 2, Vero C1008, 48 h

T2 sequence (P25021 whole entry): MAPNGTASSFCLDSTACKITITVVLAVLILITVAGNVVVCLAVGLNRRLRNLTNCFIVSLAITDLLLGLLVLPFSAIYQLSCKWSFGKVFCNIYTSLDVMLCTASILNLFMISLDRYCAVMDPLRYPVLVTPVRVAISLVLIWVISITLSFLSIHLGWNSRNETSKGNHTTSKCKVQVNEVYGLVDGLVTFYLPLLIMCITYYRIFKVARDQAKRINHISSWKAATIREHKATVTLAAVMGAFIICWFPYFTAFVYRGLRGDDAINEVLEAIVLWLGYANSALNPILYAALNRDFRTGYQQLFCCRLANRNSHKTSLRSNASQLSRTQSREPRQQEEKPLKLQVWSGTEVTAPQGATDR
T1 sequence (P25021 whole entry): as above
Chain of human sigma-2 (TMEM97) (Q5BJF2 whole entry): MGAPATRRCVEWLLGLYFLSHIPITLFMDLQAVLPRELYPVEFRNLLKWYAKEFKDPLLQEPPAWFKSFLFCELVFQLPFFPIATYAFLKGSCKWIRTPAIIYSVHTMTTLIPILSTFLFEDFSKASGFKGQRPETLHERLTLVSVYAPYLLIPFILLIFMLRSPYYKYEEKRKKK
Chain of human sigma-1 receptor (Q99720 whole entry): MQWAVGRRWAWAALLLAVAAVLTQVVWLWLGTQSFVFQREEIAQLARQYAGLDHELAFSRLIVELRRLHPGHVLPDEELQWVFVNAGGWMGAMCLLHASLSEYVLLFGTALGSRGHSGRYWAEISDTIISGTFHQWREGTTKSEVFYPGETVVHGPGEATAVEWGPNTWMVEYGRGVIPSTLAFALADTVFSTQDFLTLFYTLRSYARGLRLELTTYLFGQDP
Chain of bradykinin receptor B2 (P30411 whole entry): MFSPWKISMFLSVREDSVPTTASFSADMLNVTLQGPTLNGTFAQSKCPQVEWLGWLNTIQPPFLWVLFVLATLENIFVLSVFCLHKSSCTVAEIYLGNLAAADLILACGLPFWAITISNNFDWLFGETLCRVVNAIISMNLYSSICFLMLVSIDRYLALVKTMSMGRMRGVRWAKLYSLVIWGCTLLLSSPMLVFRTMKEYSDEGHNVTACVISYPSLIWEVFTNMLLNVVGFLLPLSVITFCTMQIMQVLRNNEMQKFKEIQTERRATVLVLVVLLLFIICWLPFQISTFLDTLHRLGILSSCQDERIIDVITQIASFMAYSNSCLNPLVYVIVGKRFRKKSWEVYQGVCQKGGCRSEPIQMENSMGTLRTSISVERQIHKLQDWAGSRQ
Chain of bradykinin receptor B1 (P46663 whole entry): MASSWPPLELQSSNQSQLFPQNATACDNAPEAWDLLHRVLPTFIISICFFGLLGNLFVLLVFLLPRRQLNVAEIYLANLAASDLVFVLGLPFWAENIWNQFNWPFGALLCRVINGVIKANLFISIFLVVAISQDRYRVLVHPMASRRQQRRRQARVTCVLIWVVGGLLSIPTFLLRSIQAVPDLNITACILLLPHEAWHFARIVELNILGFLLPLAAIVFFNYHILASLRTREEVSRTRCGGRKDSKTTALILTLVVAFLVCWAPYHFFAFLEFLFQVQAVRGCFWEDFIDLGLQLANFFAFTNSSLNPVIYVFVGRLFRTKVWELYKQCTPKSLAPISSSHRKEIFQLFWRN

SMILES: CN/C(=N/CCSCc1nc[nH]c1C)NC#N [Cimetidine]
- Css Free drug Concentration (mass/volume) ([1]; 200 mg tablet p.o. q.d.): 140 µg/L
- Css Free drug Concentration (mass/volume) ([1]; 300 mg tablet p.o. q.d.): 180.1 µg/L
- Css Free drug Concentration (molarity) ([1]; 300 mg tablet p.o. q.d.): 720 nM

SMILES: NC(N)=Nc1nc(CSCCC(N)=NS(N)(=O)=O)cs1 [Famotidine]
- effect in more recent retrospective studies [2]: no effect
- Css Free drug Concentration (mass/volume) ([1]; 20 mg capsule p.o. b.i.d.): 29.4 µg/L
- Css Free drug Concentration (molarity) ([1]; 20 mg capsule p.o. b.i.d.): 87 nM
- Css Free drug Concentration (mass/volume) ([1]; 20 mg capsule p.o. q.d.): 14.7 µg/L
- Css Free drug Concentration (molarity) ([1]; 20 mg capsule p.o. q.d.): 44 nM
- Css Free drug Concentration (mass/volume) ([1]; 20 mg capsule p.o. t.i.d.): 44.2 µg/L
- Css Free drug Concentration (molarity) ([1]; 20 mg capsule p.o. t.i.d.): 131 nM
- Css Free drug Concentration (mass/volume) ([1]; 20 mg tablet p.o. b.i.d.): 28.3 µg/L
- Css Free drug Concentration (molarity) ([1]; 20 mg tablet p.o. b.i.d.): 84 nM
- Css Total Concentration (mass/volume) ([1]; 20 mg tablet p.o. q.d.): 53 nM
- Css Free drug Concentration (mass/volume) ([1]; 20 mg tablet p.o. q.d.): 14.2 µg/L
- Css Free drug Concentration (molarity) ([1]; 20 mg tablet p.o. q.d.): 42 nM
- Css Free drug Concentration (mass/volume) ([1]; 20 mg tablet p.o. t.i.d.): 42.5 µg/L
- Css Free drug Concentration (molarity) ([1]; 20 mg tablet p.o. t.i.d.): 126 nM
- Css Free drug Concentration (mass/volume) [1, 22]: 44.3 µg/L
- Css Free drug Concentration (molarity) [1, 22]: 131 nM
- Css Free drug Concentration (mass/volume) [1, 23]: 64.6 µg/L
- Css Free drug Concentration (molarity) [1, 23]: 192 nM
- Css Free drug Concentration (mass/volume) ([1]; 60 mg tablet p.o. t.i.d.): 115.4 µg/L
- Css Free drug Concentration (molarity) ([1]; 60 mg tablet p.o. t.i.d.): 340 nM
- Css Free drug Concentration (mass/volume) ([1]; 120 mg IV every 8 h): 1,032 μg/l
- Css Free drug Concentration (molarity) ([1]; 120 mg IV every 8 h): 874 nM
- IC50 ([3]; read-out: IC50 Neutrophil H2 O2- assay, Concentration (molarity)): 201 nM
- IC50 Neutrophil H2 O2- assay, Concentration (mass/volume) [3]: 0.067 µg/mL (≈ 0.199 µM)
- arrestin recruitment efficacy [4]: about 15 % that of histamine
- IC50 [5, 24]: > 100000 nM
- IC90 [5, 24]: > 100000 nM
- inhibition of SARS-CoV-2 infection [5]: no inhibition
- effect on histamine-induced cAMP increase [6]: blocks histamine-induced cAMP increase
- Ki [7]: ~14 nM and 14 nM
- displacement of radioligand probe, sigma-2 [8]: no detectable displacement
- displacement of radioligand probe, sigma-1 [9]: no detectable displacement
- EC50 [10]: 33 nM
- activity on H2 in the presence of histamine ([10]; Figure 4B): antagonist activity
- inverse agonist activity, reduction of basal activity ([10]; cAMP, H2): 75%
- agonist activity at GPCRs other than H2 [11]: no agonist activity
- activation of bradykinin receptor B1 [12]: no activation
- activation of bradykinin receptor B2 [13]: no activation
- CC50 [14]: > 100000 nM
- EC50 [15]: 105 nM
- IC50 ([16]; read-out: IC50 Eosinophil H2 cAMP assay, Concentration (molarity)): 158 nM
- IC50 Eosinophil H2 cAMP assay, Concentration (mass/volume) [16]: 0.0536 µg/mL (≈ 0.159 µM)
- IC50 ([17]; read-out: IC50 Neutrophil H2 cAMP assay, Concentration (molarity)): 24 nM
- IC50 Neutrophil H2 cAMP assay, Concentration (mass/volume) [17]: 0.008 µg/mL (≈ 0.0237 µM)
- clinical symptoms after initiating treatment [18]: relief of symptoms overnight
- IC50 ([19]; read-out: IC50 Histamine H2, Concentration (molarity), ref Lin et al., 1987, 1991): 39 nM
- IC50 Histamine H2, Concentration (mass/volume) ([19]; ref Lin et al., 1987, 1991): 0.013 µg/mL (≈ 0.0385 µM)

SMILES: CCN(CCO)CCCC(C)Nc1ccnc2cc(Cl)ccc12 (stereo not shown) [Hydroxychloroquine]
- IC50 [5, 25]: 1440 nM
- IC90 [5, 25]: 3470 nM
- inhibition of SARS-CoV-2 infection [5]: demonstrated antiviral activity
- CC50 at 48 h [20]: > 20000 nM
- Cytotoxicity: CC10 [21]: 216 nM

SMILES: CCC(CC)COC(=O)[C@H](C)N[P@](=O)(OC[C@H]1O[C@@](C#N)(c2ccc3c(N)ncnn23)[C@H](O)[C@@H]1O)Oc1ccccc1 [Remdesivir]
- IC50 [5, 25]: 966 nM
- IC90 [5, 25]: 1770 nM
- inhibition of SARS-CoV-2 infection [5]: demonstrated antiviral activity
- Cytotoxicity: CC10 [21]: > 20000 nM
- CC50 [14]: > 20000 nM

SMILES: NCCc1c[nH]cn1 [histamine]
- stimulation of cAMP production ([10]; N = 2): 20 fold of basal
